Source: ChEMBL document CHEMBL1255200, “Exploration of piperidine-4-yl-aminopyrimidines as HIV-1 reverse transcriptase inhibitors. N-Phenyl derivatives with broad potency against resistant mutant viruses” (Bioorg Med Chem Lett, 2010)

Legend:
[1] = tested on: Human immunodeficiency virus 1; assay: Antiviral activity against HIV1 harboring reverse transcriptase K103N/Y181C double mutant infected in human MT4 cells assessed as reduction of virus-induced cytopathic effect by replication assay in presence of 10% FBS; format: functional, organism-based; details: Human immunodeficiency virus 1, MT4
[2] = tested on: Human immunodeficiency virus 1; assay: Antiviral activity against HIV1 harboring reverse transcriptase V106A mutant infected in human MT4 cells assessed as reduction of virus-induced cytopathic effect by replication assay in presence of 10% FBS; format: functional, organism-based; details: Human immunodeficiency virus 1, MT4
[3] = tested on: Human immunodeficiency virus 1; assay: Antiviral activity against HIV1 harboring reverse transcriptase Y188L mutant infected in human MT4 cells assessed as reduction of virus-induced cytopathic effect by replication assay in presence of 10% FBS; format: functional, organism-based; details: Human immunodeficiency virus 1, MT4
[4] = Clearance in human liver microsomes; format: ADME, Microsome
[5] = tested on: Human immunodeficiency virus 1; assay: Antiviral activity against wild type HIV1 infected in human MT4 cells assessed as reduction of virus-induced cytopathic effect by replication assay in presence of 10% FBS; format: functional, organism-based; details: Human immunodeficiency virus 1, MT4
[6] = tested on: Human immunodeficiency virus 1; assay: Selectivity ratio of IC50 for wild type HIV1 in presence of 40% human serum to IC50 for wild type HIV1 in presence of 10% FBS; format: functional
[7] = tested on: Human immunodeficiency virus 1; assay: Antiviral activity against HIV1 harboring reverse transcriptase K103N/L100I double mutant infected in human MT4 cells assessed as reduction of virus-induced cytopathic effect by replication assay in presence of 10% FBS; format: functional, organism-based; details: Human immunodeficiency virus 1, MT4
[8] = tested on: Human immunodeficiency virus 1; assay: Antiviral activity against wild type HIV1 infected in human MT4 cells assessed as reduction of virus-induced cytopathic effect by replication assay in presence of 40% human serum; format: functional, organism-based; details: Human immunodeficiency virus 1, MT4
[9] = target: Human immunodeficiency virus type 1 reverse transcriptase (Human immunodeficiency virus 1, UniProt Q72547); assay: Inhibition of HIV1 recombinant wild type reverse transcriptase by SPA heteropolymeric assay
[10] = target: Human immunodeficiency virus type 1 reverse transcriptase (Human immunodeficiency virus 1, UniProt Q72547, Y188L); assay: Inhibition of HIV1 recombinant reverse transcriptase Y188L mutant by SPA heteropolymeric assay
[11] = target: Human immunodeficiency virus type 1 reverse transcriptase (Human immunodeficiency virus 1, UniProt Q72547, K103N/Y181C); assay: Inhibition of HIV1 recombinant reverse transcriptase K103N/Y181C double mutant by SPA heteropolymeric assay

Structure (SMILES)	IC50 [1] [nM]	IC50 [2] [nM]	IC50 [3] [nM]	microsomal CLint [4] [µL/min/mg]	IC50 [5] [nM]	Ratio IC50 [6]	IC50 [7] [nM]	IC50 [8] [nM]	IC50 [9] [nM]	IC50 [10] [nM]	IC50 [11] [nM]
Cc1cc(C#N)cc(C)c1Oc1nc(NC2CCN(Cc3ccc(S(N)(=O)=O)cc3Cl)CC2)ncc1Br	7.3	2	2.8	151	6.1	8	5.9	48.7			
Cc1cc(C#N)cc(C)c1Oc1ccnc(NC2CCN(c3ccc(S(N)(=O)=O)cc3)CC2)n1									24	> 1000	> 1000
Cc1cc(C#N)cc(Cl)c1Nc1ccnc(NC2CCN(c3cccc(C(N)=O)c3)CC2)n1									36		36
Cc1cc(C#N)cc(C)c1Oc1nc(NC2CCN(c3cccc(C#N)c3)CC2)ncc1Br									103		352
Cc1cc(C#N)cc(C)c1Oc1ccnc(NC2CCN(c3cccc(C#N)c3)CC2)n1									51		772
Cc1cc(C#N)cc(C)c1Oc1nc(NC2CCN(c3cccc(C(=O)O)c3)CC2)ncc1Br									16		> 1000
Cc1cc(C#N)cc(C)c1Oc1ccnc(NC2CCN(c3ccc(Cl)c(C(N)=O)c3)CC2)n1									9		192
Cc1cc(C#N)cc(C)c1Oc1ccnc(NC2CCN(c3cc(Cl)cc(C(N)=O)c3)CC2)n1									28		265
Cc1cc(C#N)cc(C)c1Oc1nc(NC2CCN(c3cc(C(N)=O)ccc3Cl)CC2)ncc1Br									76	874	> 1000
Cc1cc(C#N)cc(C)c1Oc1nc(NC2CCN(c3cccc(C(N)=O)c3)CC2)ncc1Cl									24	203	13
Cc1cc(C#N)cc(C)c1Oc1nc(NC2CCN(c3cccc(C(N)=O)c3)CC2)ncc1F									14	35	14
Cc1cnc(NC2CCN(c3cccc(C(N)=O)c3)CC2)nc1Oc1c(C)cc(C#N)cc1C	3.8	0.6	< 1.2	730	1.1	4	6.7	4.5	12		15
Cc1cc(C#N)cc(C)c1Oc1nc(NC2CCN(c3cccc(C(N)=O)c3)CC2)ncc1C(F)(F)F									86		41
Cc1cc(C#N)cc(C)c1Oc1nc(NC2CCN(c3cccc(C(N)=O)c3)CC2)ncc1N									19	118	17
Cc1cc(C#N)cc(C)c1Oc1nc(NC2CCN(c3cccc(C(N)=O)c3)CC2)ncc1[N+](=O)[O-]									109		64
Cc1cc(C#N)cc(Cl)c1Oc1ccnc(NC2CCN(c3cccc(C(N)=O)c3)CC2)n1	5.3		1.6	274	0.4	17.4	42	7.5	8		8
Cc1cc(C#N)cc(Cl)c1Oc1nc(NC2CCN(c3cccc(C(N)=O)c3)CC2)ncc1Br									28	413	28
Cc1cc(C#N)cc(Cl)c1Oc1nc(NC2CCN(c3cccc(C(N)=O)c3)CC2)ncc1Cl									20	48	20
Cc1cnc(NC2CCN(c3cccc(C(N)=O)c3)CC2)nc1Oc1c(C)cc(C#N)cc1Cl	5.5	0.7	1.4	580	1.6	8.6	7.4	14.2	6		6

Structure (SMILES)	IC50 [1] [nM]	IC50 [2] [nM]	IC50 [3] [nM]	microsomal CLint [4] [µL/min/mg]	IC50 [5] [nM]	Ratio IC50 [6]	IC50 [7] [nM]	IC50 [8] [nM]	IC50 [9] [nM]	IC50 [10] [nM]	IC50 [11] [nM]
COc1cc(C#N)cc(C)c1Oc1ccnc(NC2CCN(c3cccc(C(N)=O)c3)CC2)n1									18	64	18
COc1cc(C#N)cc(C)c1Oc1nc(NC2CCN(c3cccc(C(N)=O)c3)CC2)ncc1Br									56		56
COc1cc(C#N)cc(C)c1Oc1nc(NC2CCN(c3cccc(C(N)=O)c3)CC2)ncc1Cl									19	101	19
COc1cc(C#N)cc(C)c1Oc1nc(NC2CCN(c3cccc(C(N)=O)c3)CC2)ncc1C									21	66	21
Cc1cc(C#N)cc(F)c1Oc1nc(NC2CCN(c3cccc(C(N)=O)c3)CC2)ncc1Br	28	3.9	5.5	82	7.3	2.5	18.4	18.2	6	29	6
Cc1cc(C#N)cc(C)c1Nc1ccnc(NC2CCN(c3cccc(C(N)=O)c3)CC2)n1	15.2	0.8	3.7	31	0.5	27.1	> 100	13.9	23		23
Cc1cc(C#N)cc(C)c1Nc1nc(NC2CCN(c3cccc(C(N)=O)c3)CC2)ncc1Br	11.7	0.9	2.7	42	1.5	9.8	10.8	14.2	19	75	19
Cc1cc(C#N)cc(C)c1Oc1nc(NC2CCN(c3cccc(S(N)(=O)=O)c3)CC2)ncc1Br									19	105	72
Cc1cc(C#N)cc(C)c1Oc1ccnc(NC2CCN(c3cccc(S(N)(=O)=O)c3)CC2)n1									15	194	622
Cc1cc(C#N)cc(Cl)c1Nc1nc(NC2CCN(c3cccc(C(N)=O)c3)CC2)ncc1Br	4.9	0.5	< 1.2	418	1.2	8.6	2.9	9.9	15	42	15
Cc1cc(C#N)cc(C)c1Oc1nc(NC2CCN(c3ccccc3C(N)=O)CC2)ncc1Br									32		967
Cc1cc(C#N)cc(C)c1Oc1nc(NC2CCN(c3cccc(C(N)=O)c3)CC2)ncc1Br									19	70	30
Cc1cc(C#N)cc(C)c1Oc1ccnc(NC2CCN(c3cccc(C(N)=O)c3)CC2)n1									7	34	16
Cc1cc(C#N)cc(C)c1Oc1nc(NC2CCN(c3ccc(C(N)=O)cc3)CC2)ncc1Br									24		> 1000
Cc1cc(C#N)cc(C)c1Oc1nc(NC2CCN(c3cccc(S(C)(=O)=O)c3)CC2)ncc1Br									42	831	100
Cc1cc(C#N)cc(C)c1Oc1ccnc(NC2CCN(c3cccc(S(C)(=O)=O)c3)CC2)n1									11		238
O=C1Nc2ccc(Cl)cc2[C@@](C#CC2CC2)(C(F)(F)F)O1 [EFAVIRENZ]	82.8		> 100				> 100				
Cc1cc(C#N)cc(C)c1Oc1nc(Nc2ccc(C#N)cc2)nc(N)c1Br [ETRAVIRINE]	9.2			29							
